EP0626016B1, “[…] […]” (BRITISH TECHNOLOGY GROUP LIMITED, priority 1992, dated 1993)
Where two headings read alike, the source gives them in different places.

Target: T1, HRP Type VIA (Armoracia rusticana, UniProt P00433)
T1 sequence (P00433 31-338): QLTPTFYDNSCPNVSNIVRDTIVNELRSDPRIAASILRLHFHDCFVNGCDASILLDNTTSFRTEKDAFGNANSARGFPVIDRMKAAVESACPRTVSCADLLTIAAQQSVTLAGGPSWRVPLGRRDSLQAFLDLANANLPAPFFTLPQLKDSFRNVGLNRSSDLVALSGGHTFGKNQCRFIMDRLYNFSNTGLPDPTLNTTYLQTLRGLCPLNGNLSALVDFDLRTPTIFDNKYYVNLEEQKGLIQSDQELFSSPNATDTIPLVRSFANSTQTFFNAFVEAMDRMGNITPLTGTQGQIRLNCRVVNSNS
Settings: for (d) Signal: Background: ratio (control = with no enhancer): control value in brackets not reported

Molecule: CCCCOB(OCCCC)c1ccc(Br)cc1 [Compound 1044, 4-bromophenyl-di-n-butoxyborane]
- (a) Decrease in background (without HRP with test cpd.) (0.01 mg/ml, 10µl test compound): Y
- (b) Increase in signal (with HRP, with test cpd.) (0.01 mg/ml, 10µl test compound): Y
- (c) Increase in signal: background ratio (0.01 mg/ml, 10µl test compound): Y (Column (c) shows whether there was an increase in the signal:background ratio by over 25% of the control value (Y = yes)
- (d) Signal: Background: ratio (control = with no enhancer) (0.01 mg/ml, 10µl test compound): 38.5 (1.9)
- (a) Decrease in background (without HRP with test cpd.) (0.1 mg/ml, 10µl test compound): Y
- (b) Increase in signal (with HRP, with test cpd.) (0.1 mg/ml, 10µl test compound): Y
- (c) Increase in signal: background ratio (0.1 mg/ml, 10µl test compound): Y (Column (c) shows whether there was an increase in the signal:background ratio by over 25% of the control value (Y = yes)
- (d) Signal: Background: ratio (control = with no enhancer) (0.1 mg/ml, 10µl test compound): 623.1 (2.7)
- (a) Decrease in background (without HRP with test cpd.) (1 mg/ml, 10µl test compound): Y
- (b) Increase in signal (with HRP, with test cpd.) (1 mg/ml, 10µl test compound): N
- (c) Increase in signal: background ratio (1 mg/ml, 10µl test compound): Y (Column (c) shows whether there was an increase in the signal:background ratio by over 25% of the control value (Y = yes)
- (d) Signal: Background: ratio (control = with no enhancer) (1 mg/ml, 10µl test compound): 147.1 (4.5)

Molecule: O=C(O)c1ccc(B(O)O)cc1[N+](=O)[O-] [Compound 1045, 4-carboxy-3-nitrophenylboronic acid]
- (a) Decrease in background (without HRP with test cpd.) (0.01 mg/ml, 10µl test compound): Y
- (b) Increase in signal (with HRP, with test cpd.) (0.01 mg/ml, 10µl test compound): N
- (c) Increase in signal: background ratio (0.01 mg/ml, 10µl test compound): N (N = no)
- (d) Signal: Background: ratio (control = with no enhancer) (0.01 mg/ml, 10µl test compound): 2.2 (2.0)
- (a) Decrease in background (without HRP with test cpd.) (0.1 mg/ml, 10µl test compound): Y
- (b) Increase in signal (with HRP, with test cpd.) (0.1 mg/ml, 10µl test compound): Y
- (c) Increase in signal: background ratio (0.1 mg/ml, 10µl test compound): Y (Column (c) shows whether there was an increase in the signal:background ratio by over 25% of the control value (Y = yes)
- (d) Signal: Background: ratio (control = with no enhancer) (0.1 mg/ml, 10µl test compound): 18.1 (2.8)
- (a) Decrease in background (without HRP with test cpd.) (1 mg/ml, 10µl test compound): Y
- (b) Increase in signal (with HRP, with test cpd.) (1 mg/ml, 10µl test compound): N
- (c) Increase in signal: background ratio (1 mg/ml, 10µl test compound): Y (Column (c) shows whether there was an increase in the signal:background ratio by over 25% of the control value (Y = yes)
- (d) Signal: Background: ratio (control = with no enhancer) (1 mg/ml, 10µl test compound): 68.5 (4.5)

Molecule: c1ccc2c(OB(Oc3cccc4ccccc34)c3cccc4ccccc34)cccc2c1 [Compound 1047, di-(1-naphthoxy)-l-naphthylborane]
- (a) Decrease in background (without HRP with test cpd.) (0.01 mg/ml, 10µl test compound): Y
- (b) Increase in signal (with HRP, with test cpd.) (0.01 mg/ml, 10µl test compound): N
- (c) Increase in signal: background ratio (0.01 mg/ml, 10µl test compound): N (N = no)
- (a) Decrease in background (without HRP with test cpd.) (0.1 mg/ml, 10µl test compound): Y
- (b) Increase in signal (with HRP, with test cpd.) (0.1 mg/ml, 10µl test compound): N
- (c) Increase in signal: background ratio (0.1 mg/ml, 10µl test compound): N (N = no)
- (a) Decrease in background (without HRP with test cpd.) (1 mg/ml, 10µl test compound): Y
- (b) Increase in signal (with HRP, with test cpd.) (1 mg/ml, 10µl test compound): N
- (c) Increase in signal: background ratio (1 mg/ml, 10µl test compound): N (N = no)

Molecule: BrCc1ccccc1OB(Oc1ccccc1CBr)c1ccccc1CBr [Compound 1049, 2-boromethylphenyl-di-(2'-boromethylphenoxy)borane]
- (a) Decrease in background (without HRP with test cpd.) (0.01 mg/ml, 10µl test compound): Y
- (b) Increase in signal (with HRP, with test cpd.) (0.01 mg/ml, 10µl test compound): N
- (c) Increase in signal: background ratio (0.01 mg/ml, 10µl test compound): N (N = no)
- (a) Decrease in background (without HRP with test cpd.) (0.1 mg/ml, 10µl test compound): Y
- (b) Increase in signal (with HRP, with test cpd.) (0.1 mg/ml, 10µl test compound): N
- (c) Increase in signal: background ratio (0.1 mg/ml, 10µl test compound): N (N = no)
- (d) Signal: Background: ratio (control = with no enhancer) (0.1 mg/ml, 10µl test compound): 3.2 (2.9)
- (a) Decrease in background (without HRP with test cpd.) (1 mg/ml, 10µl test compound): Y
- (b) Increase in signal (with HRP, with test cpd.) (1 mg/ml, 10µl test compound): N
- (c) Increase in signal: background ratio (1 mg/ml, 10µl test compound): N (N = no)

Molecule: CSCc1ccccc1B(O)O [Compound 1050, 2-(methylthiomethyl)phenylboronic acid]
- (a) Decrease in background (without HRP with test cpd.) (0.01 mg/ml, 10µl test compound): Y
- (b) Increase in signal (with HRP, with test cpd.) (0.01 mg/ml, 10µl test compound): N
- (c) Increase in signal: background ratio (0.01 mg/ml, 10µl test compound): N (N = no)
- (a) Decrease in background (without HRP with test cpd.) (0.1 mg/ml, 10µl test compound): Y
- (b) Increase in signal (with HRP, with test cpd.) (0.1 mg/ml, 10µl test compound): N
- (c) Increase in signal: background ratio (0.1 mg/ml, 10µl test compound): N (N = no)
- (d) Signal: Background: ratio (control = with no enhancer) (0.1 mg/ml, 10µl test compound): 3.3 (2.9)
- (a) Decrease in background (without HRP with test cpd.) (1 mg/ml, 10µl test compound): Y
- (b) Increase in signal (with HRP, with test cpd.) (1 mg/ml, 10µl test compound): N
- (c) Increase in signal: background ratio (1 mg/ml, 10µl test compound): N (N = no)

Molecule: bis(catechol)borate [Compound 1013]
- (a) Decrease in background (without HRP with test cpd.): Y
- (b) Increase in signal (with HRP, with test cpd.): N

Molecule: boraxarophenanthrene [Compound 1014]
- (a) Decrease in background (without HRP with test cpd.) (0.01 mg/ml, 10µl test compound): Y
- (b) Increase in signal (with HRP, with test cpd.) (0.01 mg/ml, 10µl test compound): N
- (c) Increase in signal: background ratio (0.01 mg/ml, 10µl test compound): N (N = no)
- (d) Signal: Background: ratio (control = with no enhancer) (0.01 mg/ml, 10µl test compound): 2.3
- (a) Decrease in background (without HRP with test cpd.) (0.1 mg/ml, 10µl test compound): Y
- (b) Increase in signal (with HRP, with test cpd.) (0.1 mg/ml, 10µl test compound): N
- (c) Increase in signal: background ratio (0.1 mg/ml, 10µl test compound): N (N = no)
- (d) Signal: Background: ratio (control = with no enhancer) (0.1 mg/ml, 10µl test compound): 1.6
- (a) Decrease in background (without HRP with test cpd.) (1 mg/ml, 10µl test compound): Y
- (b) Increase in signal (with HRP, with test cpd.) (1 mg/ml, 10µl test compound): N
- (c) Increase in signal: background ratio (1 mg/ml, 10µl test compound): N (N = no)
- (d) Signal: Background: ratio (control = with no enhancer) (1 mg/ml, 10µl test compound): 1.8 (2.5)
